Assay results reported in patent US20070197657A1, “Method for treating non-inflammatory musculoskeletal pain” (SRZ Properties, Inc., priority 2005, published 2007).
“Also recorded” adds a separate entry of the source.

Columns and labels:
[1] = test system: monosodium iodoacetate-induced tactile allodynia; experiment: monosodium iodoacetate-induced tactile allodynia (von Frey filaments); type: in vivo, rat; conditions: 30 mg/kg (lacosamide p.o., diclofenac s.c.)
[2] = test system: monosodium iodoacetate-induced mechanical hyperalgesia; experiment: monosodium iodoacetate-induced mechanical hyperalgesia (Randall-Selitto paw pressure); type: in vivo, rat
[3] = test system: formalin-induced flinching and licking of the affected paw; experiment: rat formalin paw test (late phase); type: in vivo
Description: Rats were given an intraplantar injection of 5% formalin (50 μl) into the posterior left paw. This treatment induces a recognizable flinching and licking response of the affected paw in control animals. The number of flinches was counted for 15 minutes, beginning 20 minutes after injection of formalin. The time spent licking the affected paw was also recorded.
Male Rj: Wistar (Han) rats, 10 per group, weighing 100-130 g at the beginning of the experiments were studied per group. The test was performed blind.
Lacosamide (20 mg/kg), gabapentin (50 and 100 mg/kg), combinations of lacosamide (20 mg/kg) with gabapentin (50 and 100 mg/kg), and vehicle were administered i.p. 10 minutes before injection of formalin.
Lacosamide (10 and 20 mg/kg), morphine (2 and 4 mg/kg), combinations of lacosamide (10 and 20 mg/kg) with morphine (2 and 4 mg/kg), and vehicle were administered i.p. 10 minutes before injection of formalin.
Lacosamide (10 mg/kg), duloxetine (8 mg/kg), a combination of lacosamide (10 mg/kg) with duloxetine (8 mg/kg), and vehicle were administered i.p. 10 minutes before injection of formalin.
Lacosamide (10 and 20 mg/kg), memantine (4 and 8 mg/kg), combinations of lacosamide (10 and 20 mg/kg) with memantine (4 and 8 mg/kg), and vehicle were administered i.p. 10 minutes before injection of formalin.
Lacosamide (10 and 20 mg/kg), naproxen (8 and 16 mg/kg), combinations of lacosamide (10 and 20 mg/kg) with […] (8 and 16 mg/kg), and vehicle were administered i.p. 10 minutes before injection of formalin. Morphine (8 mg/kg) was included as a comparative treatment.

[4] = test system: muscle pressure hyperalgesia induced by TNF; experiment: TNF-induced muscle pressure hyperalgesia (Randall-Selitto, gastrocnemius muscle); type: in vivo, rat; conditions: for reversal of muscular mechanical hyperalgesia (withdrawal threshold to muscle pressure): TNF 1 μg i.m. gastrocnemius; for full reversal of the muscle hyperalgesia: doses tested (pregabalin 30, 100 mg/kg; gabapentin 100 mg/kg i.p.)
Text: (§1) The model used in this example is applicable to musculoskeletal pain which occurs in fibromyalgia, myofascial pain syndrome or back pain. For comparative purposes, the non-opioid analgesic dipyrone (metamizol) and the anticonvulsants pregabalin and gabapentin were included in the study.
(§2) Adult male Sprague Dawley rats with a body weight of 250 g to 300 g were used (supplier: Charles River, Sulzfeld, Germany). Animals were group-housed (3 animals per cage) and maintained in a room with controlled temperature (21-22° C.) and a reversed light-dark cycle (12 h/12 h) with food and water available ad libitum. All experiments were approved by the Bavarian State animal experimentation committee and carried out in accordance with its regulations.
(§3) Recombinant rat tumor necrosis factor alpha (herein referred to as TNF) was obtained from R&D Systems, Minneapolis, Minn., U.S.A. TNF was diluted in 0.9% NaCl and used in a concentration of 1 μg in 50 μl. Injections were performed in short halothane narcosis with a 30 g needle bilaterally into the gastrocnemius or into the biceps brachii muscle. All rats were used to the behavioral tests before injections and baseline values were recorded over three test days.
Mechanical withdrawal thresholds to muscle pressure were measured with an analgesimeter (Ugo Basile, Comerio, Italy). The rat was allowed to crawl into a sock which helps the rat to relax. The hind limbs were positioned such that an increasing pressure could be applied onto the gastrocnemius muscle (maximum 250 g). The pressure needed to elicit withdrawal was recorded. Means of 3 trials for each hind limb were calculated (interstimulus interval of >30 sec). Only animals with a significant TNF effect were included for further analysis.
Rats were injected with TNF into the gastrocnemius muscle at 2 pm. Eighteen hours later, rats were tested for pressure hyperalgesia pre- and post-administration of the test drug. Rats were tested for pressure hyperalgesia 30 to 60 minutes after drug administration.
(§4) The rats, initially 10 per group, were treated with either 3, 10 or 30 mg/kg lacosamide, 2 mg/kg metamizol, 30 or 100 mg/kg pregabalin, 100 mg/kg gabapentin, or the NaCl vehicle, i.p. (intraperitoneally). Volume of i.p. injections was 0.5 ml. A pilot study was performed to confirm that i.m. (intramuscular) injection of 1 μg TNF into the gastrocnemius muscle was sufficient to induce pressure hyperalgesia.
(§5) Data are shown in graphs displaying means and standard errors of the means (SEM). Pre- and post-treatment data were compared using ANOVA (analysis of variance) and a Tukey post hoc test. Means of treatment groups were compared using a one-way ANOVA and Dunnett's post hoc test. Maximal possible effects (MPE) were calculated for all types of treatment.

[5] = test system: TNF-induced reduction of grip strength; experiment: biceps muscle grip strength after TNF-induced muscle pain; type: in vivo, rat; conditions: for reversal of TNF-induced reduction of grip strength: TNF 1 μg i.m. biceps brachii
Text: as §1, §2, §3
Grip strength of the forelimbs was tested with a digital grip force meter (DFIS series, Chatillon, Greensboro, N.C., U.S.A.). The rat was positioned to grab the grid with the forelimbs and was gently pulled so that the grip strength could be recorded. Means of three trials were calculated. The effect of the TNF treatment was calculated for each animal separately and only animals with a significant TNF effect were included for further analysis.
Rats were injected with TNF into the biceps brachii muscle at 8 am. Six hours later, grip strength of the forelimbs was tested with a digital grip force meter. Test drug was administered, and grip strength was again tested after 30 to 60 minutes.
as §4, §5

[6] = Example 5, duloxetine 8 mg/kg i.p.
[7] = Example 3, gabapentin 50 mg/kg i.p.
[8] = Example 3, gabapentin 100 mg/kg i.p.

## O=C(O)Cc1ccccc1Nc1c(Cl)cccc1Cl [Diclofenac, diclofenac]
[1]; day 3
  tactile allodynia of iodoacetate-treated rats: no effect
[1]; day 7
  tactile allodynia of iodoacetate-treated rats: no effect
[1]; day 14
  tactile allodynia of iodoacetate-treated rats: no effect
[2]; day 3, 30 mg/kg s.c.
  mechanical hyperalgesia (paw pressure withdrawal threshold) compared to iodoacetate/vehicle treated animals: increase in paw pressure withdrawal threshold
[2]; day 7, 30 mg/kg (lacosamide p.o., diclofenac s.c.)
  mechanical hyperalgesia (paw pressure withdrawal threshold): reduced mechanical hyperalgesia

## CNCC[C@H](Oc1cccc2ccccc12)c1cccs1 [Duloxetine, duloxetine, reference compound]
[3]; [6]
  Licking time % change (a): compared with vehicle control: −26%
  Licking time (seconds) mean ± SEM: 195.5 ± 45.0 s
  No. of flinches % change (a): compared with vehicle control: −1%
  No. of flinches mean ± SEM: 149.6 ± 27.3
  effects on number of flinches and time spent licking: no clear effects

## NCC1(CC(=O)O)CCCCC1 [Gabapentin, gabapentin, reference compound]
[4]; 100 mg/kg i.p.
  MPE (maximal possible effect) on muscle pressure hyperalgesia, versus vehicle: significantly different from vehicle
  reversal of muscular mechanical hyperalgesia (withdrawal threshold to muscle pressure): significant reversal
[4]
  full reversal of the muscle hyperalgesia: Neither pregabalin nor gabapentin led to a full reversal
[5]; 100 mg/kg i.p.
  MPE (maximal possible effect) on biceps muscle grip strength, versus vehicle: significantly different from vehicle
[5]; 100 mg/kg i.p., 100 mg/kg
  reversal of TNF-induced reduction of grip strength: significant reversal; also recorded: improved grip strength
[3]; [7]
  Licking time % change (a): compared with vehicle control: −28%
  Licking time (seconds) mean ± SEM: 161.0 ± 27.3 s
  No. of flinches % change (a): compared with vehicle control: −24%
  No. of flinches mean ± SEM: 97.4 ± 23.8
  decrease in the number of flinches as compared with vehicle controls: 24%
  decrease in the time spent licking as compared with vehicle controls: 28%
[3]; [8]
  Licking time % change (a): compared with vehicle control: −60%
  Licking time (seconds) mean ± SEM: 90.0 ± 22.5 s
  No. of flinches % change (a): compared with vehicle control: −31%
  No. of flinches mean ± SEM: 88.1 ± 19.4
  decrease in the number of flinches as compared with vehicle controls: 31%
  decrease in the time spent licking as compared with vehicle controls: 60%

## CC12CC3CC(C)(C1)CC(N)(C3)C2 [Memantine, memantine, reference compound]
[3]; Example 6, memantine 4 and 8 mg/kg i.p.
  effect on the number of flinches as compared with vehicle controls: did not clearly affect

## COc1ccc2cc([C@H](C)C(=O)O)ccc2c1 [Naproxen, naproxen, reference compound]
[3]; Example 7, naproxen 8 and 16 mg/kg i.p.
  effect on the number of flinches or the time spent licking as compared with vehicle controls: did not clearly affect

## Cc1c(N(C)CS(=O)(=O)O)c(=O)n(-c2ccccc2)n1C [metamizol]
[4]; 2 mg/kg i.p.
  MPE (maximal possible effect) on muscle pressure hyperalgesia, versus vehicle: significantly different from vehicle
  reversal of muscular mechanical hyperalgesia (withdrawal threshold to muscle pressure): complete reversal
[5]; 2 mg/kg i.p.
  MPE (maximal possible effect) on biceps muscle grip strength, versus vehicle: significantly different from vehicle
  reversal of TNF-induced reduction of grip strength: significant reversal

## CC(C)C[C@H](CN)CC(=O)O [pregabalin]
[4]; 30 mg/kg i.p.
  MPE (maximal possible effect) on muscle pressure hyperalgesia, versus vehicle: significantly different from vehicle
  reversal of muscular mechanical hyperalgesia (withdrawal threshold to muscle pressure): significant reversal
[4]; 100 mg/kg i.p.
  MPE (maximal possible effect) on muscle pressure hyperalgesia, versus vehicle: significantly different from vehicle
  reversal of muscular mechanical hyperalgesia (withdrawal threshold to muscle pressure): significant reversal
[4]
  full reversal of the muscle hyperalgesia: Neither pregabalin nor gabapentin led to a full reversal
[5]; 100 mg/kg i.p.
  MPE (maximal possible effect) on biceps muscle grip strength, versus vehicle: significantly different from vehicle
[5]; 100 mg/kg i.p., 100 mg/kg
  reversal of TNF-induced reduction of grip strength: significant reversal; also recorded: improved grip strength
